Source: patent US20130269064A1, “INSECTICIDAL COMPOUNDS” (SYNGENTA PARTICIPATIONS AG, priority 2010, published 2013)

Key:
Format in all cases: in vivo
Tetranychus urticae = Tetranychus urticae (two-spotted spider mite) bean leaf disc test; conditions: foliar, 192 h, 200 ppm sprayed on bean leaf discs, mixed ages, 8 days, egg, larval and adult mortality
Text: Tetranychus urticae (Two-Spotted Spider Mite): Bean leaf discs on agar in 24-well microtiter plates were sprayed with test solutions at an application rate of 200 ppm. After drying, the leaf discs are infested with mite populations of mixed ages. 8 days later, discs are checked for egg mortality, larval mortality, and adult mortality.

Diabrotica balteata = Diabrotica balteata (corn root worm) artificial diet test; conditions: 120 h, 200 ppm (concentration in well 18 ppm), L2 larvae, 5 days, larval mortality and growth regulation
Description: Diabrotica balteata (Corn Root Worm): A 24-well microtiter plate (MTP) with artificial diet was treated with test solutions at an application rate of 200 ppm (concentration in well 18 ppm) by pipetting. After drying, the MTP's were infested with larvae (L2) (6-10 per well). After an incubation period of 5 days, samples were checked for larval mortality, and growth regulation.

Spodoptera littoralis = Spodoptera littoralis (Egyptian cotton leafworm) cotton leaf disc test; conditions: foliar, 72 h, 200 ppm sprayed on cotton leaf discs, 5 L1 larvae, mortality, feeding behaviour, growth regulation 3 DAT
Text: Spodoptera littoralis (Egyptian Cotton Leafworm): Cotton leaf discs were placed on agar in a 24-well microtiter plate and sprayed with test solutions at an application rate of 200 ppm. After drying, the leaf discs were infested with 5 L1 larvae. The samples were checked for mortality, feeding behaviour, and growth regulation 3 days after treatment (DAT).

Heliothis virescens = Heliothis virescens (tobacco budworm) egg/artificial diet test; conditions: 96 h, 200 ppm (concentration in well 18 ppm), eggs 0-24 h old on artificial diet, 4 days, egg mortality, larval mortality, growth regulation
Description: Heliothis virescens (Tobacco Budworm): Eggs (0-24 h old) were placed in 24-well microtiter plate on artificial diet and treated with test solutions at an application rate of 200 ppm (concentration in well 18 ppm) by pipetting. After an incubation period of 4 days, samples were checked for egg mortality, larval mortality and growth regulation.

Plutella xylostella = Plutella xylostella (diamond back moth) artificial diet test; conditions: 144 h, 200 ppm (concentration in well 18 ppm), L2 larvae, 6 days, larval mortality and growth regulation
Description: Plutella xylostella (Diamond Back Moth): A 24-well microtiter plate (MTP) with artificial diet was treated with test solutions at an application rate of 200 ppm (concentration in well 18 ppm) by pipetting. After drying, the MTP's were infested with L2 larvae (7-12 per well). After an incubation period of 6 days, samples were checked for larval mortality and growth regulation.

Measured: pest or weed control at 200 ppm

Cn1nc(C(F)(F)C(F)(F)F)c(C(F)(F)F)c1NC(=O)c1ccc(Cl)c(NC(=O)c2ccc([N+](=O)[O-])cc2Cl)c1 [Compound E9]
≥ 80%: Tetranychus urticae | Diabrotica balteata

Cc1cc(F)ccc1C(=O)Nc1cccc(C(=O)Nc2c(C(F)(F)F)c(C(F)(F)C(F)(F)F)nn2C)c1 [Compound D7]
≥ 80%: all assays above

Cn1nc(C(F)(F)C(F)(F)F)c(C(F)(F)F)c1NC(=O)c1ccc(Cl)c(NC(=O)c2ccccc2C(F)(F)F)c1 [Compound E18]
≥ 80%: Diabrotica balteata

Cn1nc(C(F)(F)C(F)(F)F)c(C(F)(F)F)c1NC(=O)c1cccc(NC(=O)c2ccccc2OC(F)(F)F)c1 [Compound D14]
≥ 80%: Diabrotica balteata

Cn1nc(C(F)(F)C(F)(F)F)c(C(F)(F)F)c1NC(=O)c1ccc(Cl)c(NC(=O)c2ccc(F)c(C(F)(F)F)c2)c1 [Compound E12]
≥ 80%: Diabrotica balteata

Cc1ccc(C(=O)Nc2cccc(C(=O)Nc3c(C(F)(F)F)c(C(F)(F)C(F)(F)F)nn3C)c2F)cc1 [Compound B6]
not listed: Tetranychus urticae
≥ 80%: all other assays above

Cn1nc(C(F)(F)C(F)(F)F)c(C(F)(F)F)c1NC(=O)c1cccc(NC(=O)c2cccc(F)c2F)c1F [Compound B21]
not listed: Tetranychus urticae
≥ 80%: all other assays above

Cn1nc(C(F)(F)C(F)(F)F)c(C(F)(F)F)c1NC(=O)c1cccc(NC(=O)c2ccc(C#N)cc2)c1 [Compound D4]
≥ 80%: Tetranychus urticae | Diabrotica balteata

Cc1cc(F)ccc1C(=O)Nc1cc(C(=O)Nc2c(C(F)(F)F)c(C(F)(F)C(F)(F)F)nn2C)ccc1Cl [Compound E7]
≥ 80%: all assays above

Cn1nc(C(F)(F)C(F)(F)F)c(C(F)(F)F)c1NC(=O)c1ccc(Cl)c(NC(=O)c2cccc(F)c2F)c1 [Compound E21]
≥ 80%: Heliothis virescens | Diabrotica balteata

Cn1nc(C(F)(F)C(F)(F)F)c(C(F)(F)F)c1NC(=O)c1cccc(NC(=O)c2cc(C(F)(F)F)ccc2F)c1 [Compound D23]
≥ 80%: Spodoptera littoralis | Heliothis virescens | Diabrotica balteata

Cn1nc(C(F)(F)C(F)(F)F)c(C(F)(F)F)c1NC(=O)c1cccc(NC(=O)c2ccccc2Cl)c1F [Compound B3]
not listed: Tetranychus urticae
≥ 80%: all other assays above

Cc1ccccc1C(=O)Nc1cc(C(=O)Nc2c(C(F)(F)F)c(C(F)(F)C(F)(F)F)nn2C)ccc1Cl [Compound E2]
≥ 80%: Spodoptera littoralis

Cn1nc(C(F)(F)C(F)(F)F)c(C(F)(F)F)c1NC(=O)c1ccc(Cl)c(NC(=O)c2ccc(F)cc2Cl)c1 [Compound E19]
≥ 80%: all assays above

Cc1cc(C#N)ccc1C(=O)Nc1cc(C(=O)Nc2c(C(F)(F)F)c(C(F)(F)C(F)(F)F)nn2C)ccc1Cl [Compound E24]
≥ 80%: all assays above

Cc1cc(C#N)ccc1C(=O)Nc1cccc(C(=O)Nc2c(C(F)(F)F)c(C(F)(F)C(F)(F)F)nn2C)c1 [Compound D24]
not listed: Heliothis virescens
≥ 80%: all other assays above

Cn1nc(C(F)(F)C(F)(F)F)c(C(F)(F)F)c1NC(=O)c1cccc(NC(=O)c2ccc(C#N)cc2)c1F [Compound B4]
≥ 80%: all assays above

Cn1nc(C(F)(F)C(F)(F)F)c(C(F)(F)F)c1NC(=O)c1cccc(NC(=O)c2ccc(F)cc2F)c1F [Compound B22]
not listed: Tetranychus urticae
≥ 80%: all other assays above

Cn1nc(C(F)(F)C(F)(F)F)c(C(F)(F)F)c1NC(=O)c1ccc(Cl)c(NC(=O)c2ccc(C#N)cc2)c1 [Compound E4]
not listed: Tetranychus urticae
≥ 80%: all other assays above

Cn1nc(C(F)(F)C(F)(F)F)c(C(F)(F)F)c1NC(=O)c1cccc(NC(=O)c2ccccc2C(F)(F)F)c1 [Compound D18]
≥ 80%: Spodoptera littoralis | Heliothis virescens | Diabrotica balteata

Cn1nc(C(F)(F)C(F)(F)F)c(C(F)(F)F)c1NC(=O)c1ccc(Cl)c(NC(=O)c2ccc([N+](=O)[O-])cc2)c1 [Compound E5]
≥ 80%: Heliothis virescens | Plutella xylostella | Diabrotica balteata

Cn1nc(C(F)(F)C(F)(F)F)c(C(F)(F)F)c1NC(=O)c1cccc(NC(=O)c2ccc([N+](=O)[O-])cc2)c1F [Compound B5]
≥ 80%: all assays above

Cn1nc(C(F)(F)C(F)(F)F)c(C(F)(F)F)c1NC(=O)c1ccc(Cl)c(NC(=O)c2ccc(C(F)(F)F)cc2)c1 [Compound E13]
≥ 80%: Heliothis virescens | Diabrotica balteata

Cc1cc(C#N)ccc1C(=O)Nc1nc(C(=O)Nc2c(C(F)(F)F)c(C(F)(F)C(F)(F)F)nn2C)ccc1C#N [Compound F1]
≥ 80%: Spodoptera littoralis

Cn1nc(C(F)(F)C(F)(F)F)c(C(F)(F)F)c1NC(=O)c1cccc(NC(=O)c2ccc(F)cc2)c1F [Compound B17]
≥ 80%: all assays above

Cc1ccccc1C(=O)Nc1cccc(C(=O)Nc2c(C(F)(F)F)c(C(F)(F)C(F)(F)F)nn2C)c1 [Compound D2]
not listed: Tetranychus urticae
≥ 80%: all other assays above

Cn1nc(C(F)(F)C(F)(F)F)c(C(F)(F)F)c1NC(=O)c1cccc(NC(=O)c2ccc([N+](=O)[O-])cc2)c1 [Compound D5]
not listed: Tetranychus urticae
≥ 80%: all other assays above

Cn1nc(C(F)(F)C(F)(F)F)c(C(F)(F)F)c1NC(=O)c1ccc(Cl)c(NC(=O)c2ccccc2)c1 [Compound E16]
not listed: Tetranychus urticae
≥ 80%: all other assays above

Cn1nc(C(F)(F)C(F)(F)F)c(C(F)(F)F)c1NC(=O)c1cccc(NC(=O)c2ccccc2F)c1F [Compound B1]
not listed: Tetranychus urticae
≥ 80%: all other assays above

Cn1nc(C(F)(F)C(F)(F)F)c(C(F)(F)F)c1NC(=O)c1cccc(NC(=O)c2ccc(F)c(C(F)(F)F)c2)c1 [Compound D12]
≥ 80%: Heliothis virescens | Diabrotica balteata

Cn1nc(C(F)(F)C(F)(F)F)c(C(F)(F)F)c1NC(=O)c1ccc(Cl)c(NC(=O)c2ccccc2Cl)c1 [Compound E3]
not listed: Tetranychus urticae
≥ 80%: all other assays above

Cn1nc(C(F)(F)C(F)(F)F)c(C(F)(F)F)c1NC(=O)c1ccc(Cl)c(NC(=O)c2ccc(F)cc2)c1 [Compound E17]
not listed: Tetranychus urticae
≥ 80%: all other assays above

Cn1nc(C(F)(F)C(F)(F)F)c(C(F)(F)F)c1NC(=O)c1ccc(C#N)c(NC(=O)c2ccncc2)n1 [Compound F2]
not listed: Spodoptera littoralis
≥ 80%: all other assays above

Cn1nc(C(F)(F)C(F)(F)F)c(C(F)(F)F)c1NC(=O)c1cccc(NC(=O)c2ccc(OC(F)(F)F)cc2)c1 [Compound D11]
not listed: Tetranychus urticae
≥ 80%: all other assays above
